Measured values published in patent US20250163104A1, “MACROCYCLIC IMMUNOMODULATORS” (priority 2021, published 2025).
Where a SMILES comes first, the peptide text is derived from it. Bridges are numbered along the chain shown (N, C = ends). [ ]: non-standard residue; d: D form. The star is where a group is joined. ξ: configuration not given here. Phe(4-COOH) = N[C@@H](Cc1ccc(C(=O)O)cc1)C(=O)O; Bip = N[C@@H](Cc1ccc(-c2ccccc2)cc1)C(=O)O; Phe(3-Me) = Cc1cccc(C[C@H](N)C(=O)O)c1; 4Pal = N[C@@H](Cc1ccncc1)C(=O)O; Cha = N[C@@H](CC1CCCCC1)C(=O)O; Cit = NC(=O)NCCC[C@H](N)C(=O)O; Ile(3ξ) = CCC(C)[C@H](N)C(=O)O; Thr(3ξ) = CC(O)[C@H](N)C(=O)O; Phg = N[C@H](C(=O)O)c1ccccc1; Carboxymethyl = O=C(O)C*; Nle = CCCC[C@H](N)C(=O)O; Orn = NCCC[C@H](N)C(=O)O; Dab = NCC[C@H](N)C(=O)O; Dap = NC[C@H](N)C(=O)O

What follows are compounds tested against T1, human PD-1 / PD-L1-Ig binding on Jurkat cell line over-expressing human PD-1 (Jurkat-PD-1) (Homo sapiens, UniProt Q15116) (assay: Jurkat-PD-1 Cell Binding High-Content Screening Assay (CBA)). Conditions: Jurkat-PD-1 cells, PE-labeled PD-L1-Ig 20 nM final; read-out: Jurkat HPD1_PDL1 IC50.
T1 construct: expressed in transfected cells; host or cells: Jurkat
T1 sequence (Q15116 25-288): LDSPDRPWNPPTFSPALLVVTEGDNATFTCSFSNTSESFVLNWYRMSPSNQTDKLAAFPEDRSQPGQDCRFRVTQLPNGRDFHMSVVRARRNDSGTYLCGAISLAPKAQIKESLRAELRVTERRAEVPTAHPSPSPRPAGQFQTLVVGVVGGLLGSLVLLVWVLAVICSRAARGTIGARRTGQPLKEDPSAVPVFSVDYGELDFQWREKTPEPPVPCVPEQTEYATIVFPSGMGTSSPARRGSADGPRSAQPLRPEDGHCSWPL
Assay type: cell-based
Method in brief: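 PE-PD-L1-Ig 20 nM final; cells in DMEM/10% FCS; cpd pre-incubation 2 h, 37° C; ligand 1 h; PFA fix + Hoechst 33342; high-content imaging read-out.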
`CC(C)C[C@H]1NC(=O)[C@H](CCCN)NC(=O)[C@H](CCC(=O)O)NC(=O)[C@H](Cc2ccc(-c3ccccc3)cc2)NC(=O)[C@H](c2ccccc2)NC(=O)[C@H](Cc2c[nH]c3ccccc23)NC(=O)[C@H](CC(=O)O)NC(=O)[C@H](Cc2ccc(OCC(=O)O)cc2)NC(=O)[C@H](CN)NC(=O)CSC[C@@H](C(=O)N[C@@H](C)C(N)=O)NC(=O)[C@H]([C@@H](C)O)NC(=O)[C@H](C(C)C)NC(=O)[C@H](CC2CCCCC2)NC(=O)[C@H](CCN)NC1=O` [Compound 1720] ({CH2CO}-[Dap]Y(Carboxymethyl)DW[Phg][Bip]E[Orn][dL][Dab][Cha]VTCA-NH2; thioether N-14) gave an IC50 of 24 nM.
`Cc1cccc(C[C@@H]2NC(=O)[C@H](CC(=O)O)NC(=O)[C@H](Cc3ccc(C(=O)O)cc3)NC(=O)[C@H](Cc3ccncc3)NC(=O)CSC[C@@H](C(=O)N[C@@H](CC(N)=O)C(N)=O)NC(=O)[C@H](CCC(N)=O)NC(=O)[C@H](C(C)C)NC(=O)[C@H](CC3CCCCC3)NC(=O)[C@H](CCN)NC(=O)[C@@H](CC(C)C)NC(=O)[C@H](CCCN)NC(=O)[C@H](Cc3ccc(OCC(=O)O)cc3)NC(=O)[C@H](Cc3ccc(-c4ccccc4)cc3)NC(=O)[C@H](Cc3ccc(OCC(=O)O)cc3)NC2=O)c1` [Compound 2305] ({CH2CO}-[4Pal][Phe(4-COOH)]D[Phe(3-Me)]Y(Carboxymethyl)[Bip]Y(Carboxymethyl)[Orn][dL][Dab][Cha]VQCN-NH2; thioether N-14) was tested, and the IC50 was 10.2 nM.
With `CC[C@H](C)[C@@H]1NC(=O)[C@H](Cc2ccc(-c3ccccc3)cc2)NC(=O)[C@H](C(C)C)NC(=O)[C@H](Cc2c[nH]c3ccccc23)NC(=O)[C@H](CC(=O)O)NC(=O)[C@H](Cc2ccc(OCC(=O)O)cc2)NC(=O)[C@H](Cc2ccc(OCC(=O)O)cc2)NC(=O)CSC[C@@H](C(=O)N[C@@H](C)C(N)=O)NC(=O)[C@H]([C@@H](C)O)NC(=O)[C@H](C(C)C)NC(=O)[C@H](Cc2ccccc2)NC(=O)[C@H](CCN)NC(=O)[C@@H](CC(C)C)NC(=O)[C@H](CCCN)NC1=O` [Compound 1660] ({CH2CO}-Y(Carboxymethyl)Y(Carboxymethyl)DWV[Bip]I[Orn][dL][Dab]FVTCA-NH2; thioether N-14) the IC50 was 20.6 nM.
Work on `CC(C)C[C@@H]1NC(=O)[C@H](Cc2c[nH]c3ccccc23)NC(=O)[C@H](CC(=O)O)NC(=O)[C@H](Cc2ccc(C(=O)O)cc2)NC(=O)[C@H](Cc2ccc(OCC(=O)O)cc2)NC(=O)CSC[C@@H](C(=O)NCC(N)=O)NC(=O)[C@H](CO)NC(=O)[C@H](C(C)C)NC(=O)[C@H](CC(C)C)NC(=O)[C@H](CC(N)=O)NC(=O)[C@@H](CC(C)C)NC(=O)[C@H](CCCN)NC(=O)[C@H](C(C)C)NC(=O)[C@H](Cc2ccc(-c3ccccc3)cc2)NC1=O` [Compound 1283] ({CH2CO}-Y(Carboxymethyl)[Phe(4-COOH)]DWL[Bip]V[Orn][dL]NLVSCG-NH2; thioether N-14) yielded an IC50 of 24.5 nM.
Compound `CC(C)C[C@H]1NC(=O)[C@H](CCCN)NC(=O)[C@H](C(C)C)NC(=O)[C@H](Cc2ccc(-c3ccccc3)cc2)NC(=O)[C@H](C(C)C)NC(=O)[C@H](Cc2c[nH]c3ccccc23)NC(=O)[C@H](CC(=O)O)NC(=O)[C@H](Cc2ccc(OCC(=O)O)cc2)NC(=O)[C@H](Cc2cnc[nH]2)NC(=O)CSC[C@@H](C(=O)N[C@H](C)C(N)=O)NC(=O)[C@H](C(C)O)NC(=O)[C@H](C(C)C)NC(=O)[C@H](CC2CCCCC2)NC(=O)[C@H](CCN)NC1=O` (stereo partly drawn) [Compound 2563] ({CH2CO}-HY(Carboxymethyl)DWV[Bip]V[Orn][dL][Dab][Cha]V[Thr(3ξ)]C[dA]-NH2; thioether N-14) has an IC50 of 3 nM.
`CC(C)C[C@H]1NC(=O)[C@H](CCCN)NC(=O)[C@H](CCC(=O)O)NC(=O)[C@H](Cc2ccc(-c3ccccc3)cc2)NC(=O)[C@H](C(C)C)NC(=O)[C@H](Cc2c[nH]c3ccccc23)NC(=O)[C@H](CC(=O)O)NC(=O)[C@H](Cc2ccc(OCC(=O)O)cc2)NC(=O)[C@H](CN)NC(=O)CSC[C@@H](C(=O)N[C@@H](C)C(N)=O)NC(=O)[C@H]([C@@H](C)O)NC(=O)[C@H](C(C)C)NC(=O)[C@H](CC2CCCCC2)NC(=O)[C@H](CCC(=O)O)NC1=O` [Compound 1515] ({CH2CO}-[Dap]Y(Carboxymethyl)DWV[Bip]E[Orn][dL]E[Cha]VTCA-NH2; thioether N-14) was tested, and the IC50 was 28.8 nM.
With `Cc1cccc(C[C@@H]2NC(=O)[C@H](CC(=O)O)NC(=O)[C@H](Cc3ccc(OCC(=O)O)cc3)NC(=O)[C@H]([C@@H](C)O)NC(=O)CSC[C@@H](C(N)=O)NC(=O)[C@H](CC(=O)O)NC(=O)[C@H](C(C)C)NC(=O)[C@H](CC3CCCCC3)NC(=O)[C@H](CCN)NC(=O)[C@@H](CC(C)C)NC(=O)[C@H](CCCN)NC(=O)[C@H](Cc3ccc(OCC(=O)O)cc3)NC(=O)[C@H](Cc3ccc(-c4ccccc4)cc3)NC(=O)[C@H](Cc3ccc(OCC(=O)O)cc3)NC2=O)c1` [Compound 1798] ({CH2CO}-TY(Carboxymethyl)D[Phe(3-Me)]Y(Carboxymethyl)[Bip]Y(Carboxymethyl)[Orn][dL][Dab][Cha]VDC-NH2; thioether N-14) the IC50 was 26.7 nM.
`CCCC[C@@H]1NC(=O)[C@H](Cc2c[nH]c3ccccc23)NC(=O)[C@H](CC(=O)O)NC(=O)[C@H](Cc2ccc(OCC(=O)O)cc2)NC(=O)[C@H](CN)NC(=O)CSC[C@@H](C(=O)N[C@@H](C)C(N)=O)NC(=O)[C@H]([C@@H](C)O)NC(=O)[C@H](C(C)C)NC(=O)[C@H](CC2CCCCC2)NC(=O)[C@H](CCN)NC(=O)[C@@H](CC(C)C)NC(=O)[C@H](CCCN)NC(=O)[C@H](CCCNC(N)=O)NC(=O)[C@H](Cc2ccc(-c3ccccc3)cc2)NC1=O` [Compound 1358] ({CH2CO}-[Dap]Y(Carboxymethyl)DW[Nle][Bip][Cit][Orn][dL][Dab][Cha]VTCA-NH2; thioether N-14) was tested, and the IC50 was 7.3 nM.
`CC(C)C[C@@H]1NC(=O)[C@H](Cc2c[nH]c3ccccc23)NC(=O)[C@H](CC(=O)O)NC(=O)[C@H](Cc2ccc(C(=O)O)cc2)NC(=O)[C@H](Cc2ccc(OCC(=O)O)cc2)NC(=O)CSC[C@@H](C(=O)NCC(N)=O)NC(=O)[C@H](CO)NC(=O)[C@H](C(C)C)NC(=O)[C@H](CC2CCCCC2)NC(=O)[C@H](CC(N)=O)NC(=O)[C@@H](CC(C)C)NC(=O)[C@H](CN)NC(=O)[C@H](C(C)C)NC(=O)[C@H](Cc2ccc(-c3ccccc3)cc2)NC1=O` [Compound 1393] ({CH2CO}-Y(Carboxymethyl)[Phe(4-COOH)]DWL[Bip]V[Dap][dL]N[Cha]VSCG-NH2; thioether N-14) showed an IC50 of 25.3 nM.

Same assay, conditions: read-out: Jurkat HPD1_PDL1 IC50; Jurkat-PD-1 cells, PE-labeled PD-L1-Ig 20 nM final
For `CCC(C)[C@@H]1NC(=O)[C@H](CC2CCCCC2)NC(=O)[C@H](CCN)NC(=O)[C@@H](CC(C)C)NC(=O)[C@H](CCCN)NC(=O)[C@H](C(C)CC)NC(=O)[C@H](Cc2ccc(-c3ccccc3)cc2)NC(=O)[C@H](C(C)CC)NC(=O)[C@H](Cc2c[nH]c3ccccc23)NC(=O)[C@H](CC(=O)O)NC(=O)[C@H](Cc2ccc(OCC(=O)O)cc2)NC(=O)[C@H](C(C)O)NC(=O)CSC[C@@H](C(=O)N2CCC[C@H]2C(N)=O)NC(=O)[C@H](CO)NC1=O` (stereo partly drawn) [Compound 2583] ({CH2CO}-[Thr(3ξ)]Y(Carboxymethyl)DW[Ile(3ξ)][Bip][Ile(3ξ)][Orn][dL][Dab][Cha][Ile(3ξ)]SCP-NH2; thioether N-14), the IC50 was 122 nM.
